{"source": "patent US20090239868A1", "about": "(priority 2007, published 2009)", "key": {"[1]": {"test_system": "TGF-β induced PAI-1 production", "assay": "TGF-β induced PAI-1 production in HT1080 cells (Western blotting)", "format": "cell-based", "settings": "Homo sapiens, HT-1080, TGF-β1 10 ng/mL, 6-hours incubation", "procedure": "After incubating HT1080 cells for 48 hours in the MEM medium containing 10% FBS (Fetal Bovine Serum), the medium was changed to a MEM medium containing 1% FBS, and TGF-β1 (final concentration: 10 ng/mL) only, or TGF-β1 (final concentration: 10 ng/mL) and the test substances were added and incubated. As a control, a culture solution without neither TGF-β1 nor the test substances was prepared. After 6-hours incubation, the culture fluids were collected, and the PAI-1 amounts in the culture fluids were measured by the Western blotting. The PAI-1 amount when TGF-β1 only was added being “100%,” and the PAI-1 amount in the control being “0%,” PAI-1 amounts at each concentration of the test substances (PAI-1 inhibition ratios) were calculated, and the concentrations of the compounds, which inhibited PAI-1 production to 50% (IC50) in amount, were obtained."}, "[2]": {"test_system": "TGF-β induced PAI-1 production", "assay": "TGF-β induced PAI-1 production in HepG2 cells (Human Serpin E1/PAI-1 DuoSet)", "format": "cell-based", "method": "HepG2 cells were seeded on a 96-well culture plate by 2×10^4 cells/well, and were incubated for 24 hours in the MEM medium containing 1% NEAA (Non-Essential Amino Acids), 1 mM pyruvate, and 10% FBS. Then, the medium was changed to a MEM medium containing 1% NEAA, 1 mM pyruvate and 1% FBS, and the cells were further incubated for 24 hours. Subsequently, after the medium was changed to a MEM medium containing 1% NEAA, 1 mM pyruvate and 1% FBS, and then the cells were treated with the test substances (final concentration: 1 μM or 0.1 μM) for one hour, TGF-β1 (final concentration: 1 ng/mL) was added and the cells were further incubated for 24 hours. As controls, a culture solution added TGF-β1 only, and a culture solution cultured without neither the test substances nor TGF-β1 were prepared. After the incubation, the PAI-1 amount was measured using Human Serpin E1/PAI-1 DuoSet (R&D Systems). The PAI-1 amount when treated with TGF-β1 only being “100%”, and the PAI-1 amount when treated without neither the test substances nor TGF-β1 being “0%”, the PAI-1 inhibition ratios of each test substance were calculated."}, "PAI-1 [3]": {"test_system": "PAI-1", "assay": "PAI-1 concentration in plasma of type II diabetes patients with obesity (Human PAI-1 ELISA Kit)", "format": "in vivo", "settings": "200 mg orally twice a day for 12 weeks, plasma at 2, 4, 8, 12 weeks, FIG. 1", "procedure": "To 10 patients of the type II diabetes with obesity where PAI-1 overproduction was recognized, the compound (1) was administered orally 200 mg each time twice a day (after breakfast and after dinner) for 12 weeks. Blood was collected from each patient just before the administration of the compound (1) and 2, 4, 8, and 12 weeks later, and the PAI-1 concentration in plasma was measured using Human PAI-1 ELISA Kit (AssayPro)."}, "[4]": {"test_system": "mustard oil infusion rats (cystitis rat)", "assay": "Bladder fibrosis score, mustard oil infusion rats (cystitis rat), Azan stain", "format": "in vivo", "settings": "100 mg/kg/day orally for 10 days; control 2.6±0.1; p<0.01 Wilcoxon test", "procedure": "A polyethylene tube was inserted to the urethra of the 7 week-old rats (SPF: male Crj, Charles River Japan, Inc), and 0.4 mL of 5% mustard oil (diluted with liquid paraffin including 20% allyl isothiocyanate) was infused into the bladder. 60 minutes later, after withdrawing the liquid in the bladder with suctioning, the inside of the bladder was rinsed with saline. For 10 days including 3 days before the infusion of the mustard oil and 7 days after the infusion of the mustard oil, the compound (1) (100 mg/kg/day) was orally administered once a day (Compound (1) administered rat: n=6). Furthermore, as a control, mustard oil infusion rats (cystitis rat: n=6) to which the compound (1) was not administered were prepared. On the 8th day after the infusion of the mustard, the bladders were removed to prepare paraffin sections, the degrees of fibrosis were scored by Azan stain, and the evaluations were conducted. For the index of the scoring, those that have no abnormalities to the normal tissues being “1,” those that have minor fibrosis being “2,” those that have mild fibrosis being “3,” those that have moderate fibrosis being “4,” and those that have severe fibrosis being “5” were used. As a result, although the score of the control group was 2.6±0.1, the compound (1) administered group was 2.0±0.2, and a significant difference was confirmed (p<0.01: Wilcoxon test)."}, "[5]": {"test_system": "cardiac infarction (ischemia-reperfusion) model rats", "assay": "Fibrosis ratio in left ventricle cardiac muscle, cardiac infarction (ischemia-reperfusion) model rats, Azan-Mallory stain", "format": "in vivo, rat", "settings": "p.o., once a day for 28 days, control 7.5 ± 1.1", "procedure": "After the 8-week old rats (SPF: male SD, Japan SLC, Inc.) were anesthetized with Pentobarbital Sodium, their hearts were exteriorized, and the left anterior descending coronary arteries (LAD) were ligated by a suture needle with a thread. 30 minutes later, the ligations were removed, and the blood was reperfused for 24 hours. After that, the compound (1) (10 mg/kg/day, 30 mg/kg/day, 100 mg/kg/day) was orally administered once a day for 28 continuous days. Moreover, as a control, rats to which the compound (1) was not administered after the reperfusion (cardiac infarction (ischemia-reperfusion) model rats) were prepared. On the 29th day after the reperfusion, after preparing paraffin sections of cardiac muscle in the left ventricle of each rat, Azan-Mallory stain was carried out, the ratios of the stained area occupying the myocardial necrosis distant sites were obtained as the ratios of fibrosis by the image analyses."}, "PAI-1 [6]": {"test_system": "PAI-1", "assay": "Immunostaining of PAI-1 expression cells among cells infiltrated in the lung, cigarette smoke exposed guinea pigs", "format": "in vivo, guinea pig", "procedure": "Using the smoking exposure system (INH06-CIGOIA, MIPS Inc.), 6-week old guinea pigs (Std: male Hartley, Japan SLC, Inc.) were exposed to smoke of 40 cigarettes (Peace (Registered Trademark), Japan Tobacco, Inc.) a day (20 cigarettes twice) for 25 continuous days (Chronic Obstructive Pulmonary Disease (COPD) model group: Control group: n=10). To these guinea pigs, from the day of exposure to the smoke of tobacco, the compound (1) (30 mg/kg/day or 100 mg/kg/day) or prednisolone (10 mg/kg/day) was continuously administered orally once a day for 25 days (Compound (1) 30 mg administered group: n=5, Compound (1) 100 mg administered group: n=5, Prednisolone administered group: n=5). Furthermore, as a normal group, guinea pigs (n=5) exposed to air without the administration of the compound (1) and prednisolone were prepared. On the following day of the last exposure, after preparing paraffin sections in the lungs of each guinea pig, collagen was stained by the Masson-trichrome method, and the accumulations of collagen in the alveoli were measured by the area rate with the image analysis.\nNext, the above paraffin section was stained by the immunostaining method using an anti PAI-1 antibody (PAI-1H-135; Santa Cruz; 250-fold dilution), and the ratio of PAI-1 expression cells to the total cell numbers infiltrated in the lung was measured. […]"}, "[7]": {"test_system": "PAI-1 gene expression induced by PMA", "settings": "J. Immunol., Vol. 165, pp. 3154-3161, 2000; cited from earlier work"}}, "note": "“Also recorded” adds a separate entry of the source.", "data": [{"smiles": "O=C(Nc1cc(C(F)(F)F)cc(C(F)(F)F)c1)c1cc(Cl)ccc1O", "note": "[(2)]", "values": [{"measurement": "IC50", "setting": "[1]", "result": 0.005, "unit": "µM"}, {"measurement": "Inhibition Ratio (PAI-1)", "setting": "[2]; Compound Concentration: 0.1 μM", "result": 94.8, "unit": "%"}, {"measurement": "Inhibition Ratio (PAI-1)", "setting": "[2]; Compound Concentration: 1 μM", "result": ">90", "unit": "%"}, {"measurement": "IC50", "setting": "[2]; Homo sapiens, TGF-β1 1 ng/mL, 24 hours", "result": "~0.05", "unit": "µM"}]}, {"smiles": "O=C(Nc1cc(C(F)(F)F)ccc1C(F)(F)F)c1cc(Br)ccc1O", "note": "[(3)]", "values": [{"measurement": "IC50", "setting": "[1]", "result": 0.083, "unit": "µM"}, {"measurement": "Inhibition Ratio (PAI-1)", "setting": "[2]; Compound Concentration: 1 μM", "result": ">90", "unit": "%"}]}, {"smiles": "O=C(Nc1cc(C(F)(F)F)cc(C(F)(F)F)c1)c1cc(Cl)ccc1OC(=O)N1CCOCC1", "note": "[Compound (1)]", "values": [{"measurement": "concentration of PAI-1 in blood", "setting": "PAI-1 [3]", "result": "decreased"}, {"measurement": "fibrosis score (1 no abnormalities to 5 severe fibrosis)", "setting": "[4]", "result": "2.0±0.2"}, {"measurement": "Fibrosis ratio", "setting": "[5]; 10 mg/kg", "result": "5.5 ± 0.4", "unit": "%"}, {"measurement": "Fibrosis ratio", "setting": "[5]; 30 mg/kg", "result": "4.9 ± 0.4", "unit": "%"}, {"measurement": "Fibrosis ratio", "setting": "[5]; 100 mg/kg", "result": "4.3 ± 0.5", "unit": "%"}, {"measurement": "total number of the infiltrating cells versus normal group", "setting": "PAI-1 [6]; compound (1) 100 mg administered group", "result": "at the same level"}, {"measurement": "ratio of PAI-1 expression cells to the total number of infiltrating cells in the lung", "setting": "PAI-1 [6]; oral once a day for 25 days, FIG. 3", "result": "decreased; also recorded: improved to the level of the normal group"}]}, {"smiles": "O=C(Nc1cc(C(F)(F)F)cc(C(F)(F)F)c1)c1cc(F)ccc1O", "note": "[(5)]", "values": [{"measurement": "Inhibition Ratio (PAI-1)", "setting": "[2]; Compound Concentration: 0.1 μM", "result": 71.2, "unit": "%"}, {"measurement": "Inhibition Ratio (PAI-1)", "setting": "[2]; Compound Concentration: 1 μM", "result": ">90", "unit": "%"}]}, {"smiles": "O=C(Nc1cc(C(F)(F)F)cc(C(F)(F)F)c1)c1c(O)c(Cl)cc(Cl)c1Cl", "note": "[(59)]", "values": [{"measurement": "Inhibition Ratio (PAI-1)", "setting": "[2]; Compound Concentration: 1 μM", "result": ">90", "unit": "%"}]}, {"smiles": "CC(C)c1cccc(NC(=O)c2cc(Cl)ccc2O)c1", "note": "[(81)]", "values": [{"measurement": "Inhibition Ratio (PAI-1)", "setting": "[2]; Compound Concentration: 1 μM", "result": 40.0, "unit": "%"}]}, {"smiles": "C[C@@H]1C[C@@H]([C@H](O)CC2CC(=O)NC(=O)C2)C(=O)[C@@H](C)C1", "note": "[cycloheximide]", "values": [{"measurement": "PAI-1 gene expression induced by PMA", "setting": "[7]", "result": "inhibiting substance"}]}, {"smiles": "O=C(Nc1cc(C(F)(F)F)cc(C(F)(F)F)c1)c1ccccc1O", "note": "[(4)]", "values": [{"measurement": "Inhibition Ratio (PAI-1)", "setting": "[2]; Compound Concentration: 1 μM", "result": ">90", "unit": "%"}]}, {"smiles": "O=C(Nc1cccc(SC(F)(F)F)c1)c1cc(Cl)ccc1O", "note": "[(82)]", "values": [{"measurement": "Inhibition Ratio (PAI-1)", "setting": "[2]; Compound Concentration: 1 μM", "result": ">90", "unit": "%"}]}, {"smiles": "O=C(Nc1cc(C(F)(F)F)cc(C(F)(F)F)c1)c1c(O)cccc1F", "note": "[(60)]", "values": [{"measurement": "Inhibition Ratio (PAI-1)", "setting": "[2]; Compound Concentration: 1 μM", "result": 38.1, "unit": "%"}]}, {"smiles": "O=C(Nc1cc(C(F)(F)F)cc(C(F)(F)F)c1)c1cc(C(F)(F)F)ccc1O", "note": "[(19)]", "values": [{"measurement": "Inhibition Ratio (PAI-1)", "setting": "[2]; Compound Concentration: 0.1 μM", "result": 62.2, "unit": "%"}, {"measurement": "Inhibition Ratio (PAI-1)", "setting": "[2]; Compound Concentration: 1 μM", "result": ">90", "unit": "%"}]}, {"smiles": "Cc1ccc(-c2ccccc2)cc1NC(=O)c1cc(Cl)ccc1O", "note": "[(66)]", "values": [{"measurement": "Inhibition Ratio (PAI-1)", "setting": "[2]; Compound Concentration: 1 μM", "result": 84.1, "unit": "%"}]}]}
